The values that follow come from US4159328A, “Tetrahydro-1,3,5-thiadiazin-4-one derivative” (Nihon Nohyaku Co., Ltd., priority 1977, dated 1979).

Assay type in all cases: in vivo
For experiment [1], the system named is larvae of house mosquito (Culex pipiens pallens Coquillett). Briefly: Test Example 6: insecticidal activity to larvae of house mosquito. Conditions: 120 h. As to the method: Insecticidal activity to larvae of house mosquito (Culex pipiens pallens Coquillett).
Test method: In a 200-ml beaker, was placed together with a feed 100 ml of a test composition diluted with deionized water to 10 ppm concentration. The test composition was infested with 20 first-instar larvae of house mosquito and the beaker was covered with a sheet of Japanese paper. The beaker was kept in a constant temperature cabinet at 25° C. Five days after the treatment, the dead-and-survival was inspected to calculate the mortality.

The subject of experiment [2] is larvae of 28-spotted lady beetle (Epilachna vigintioctopunctana Fabricius). In words: Test Example 8: insecticidal activity against larvae of 28-spotted lady beetle. To be noted: 120 h. As to the method: Insecticidal activity against larvae of 28-spotted lady beetle (Epilachna vigintioctopunctana Fabricius).
Testing method: Leaflets of tomato grown in a greenhouse were dipped in a test composition of 100 ppm concentration for 30 seconds and after that the leaflets were dried by air. In a Petri dish covered on the bottom with a piece of filter paper, were introduced 1 ml of water and three treated tomato leaflets. After having been infested with seven second-instar larvae of 28-spotted lady beetle, the Petri dish was left standing in a constant temperature cabinet at 25° C. Five days after the treatment, the dead-and-survival was inspected to calculate the mortality (2-replication test).

The subject of experiment [3] is larvae of brown planthopper (Nilaparvata lugens Stahl). Briefly: Test Example 1: insecticidal activity against larvae of brown planthopper. To be noted: 120 h, third-instar larvae, 25° C., 5 days after treatment. As for the experimental part:
Insecticidal activity against larvae of brown planthopper (Nilaparvata lugens Stahl).
Testing method: Five rice seedlings of the 1.5 leaf age were dipped in a test composition of 400 ppm concentration for 30 seconds. After air-drying, the seedlings were placed in a glass tube containing 1 ml of water and infested with five third-instar larvae of brown planthopper. The glass tube was left standing in a constant temperature cabinet at 25° C. and 5 or 7 days after the treatment, dead-and-survival was observed. Mortality was calculated from the results of 3-replication test.

For experiment [4], the system named is two-spotted spider mite (Tetranychus urticae Koch). Briefly: Test Example 3: activity to two-spotted spider mite. Conditions: 120 h, 1,000 ppm, 5 days after treatment. From the text:
Activity to two-spotted spider mite (Tetranychus urticae Koch).
Testing method: Two-spotted spider mites were set free on the pot-planted soybean in a greenhouse. On the next day, a test composition of 1,000 ppm concentration was sprayed over the soybean by means of a spray gun. Two days or five days after the treatment, dead-and-survival was inspected to calculate the mortality.

The test system of experiment [5] is larvae of green rice leafhopper (Nephotettix cincticeps Uhler). Briefly: Test Example 5: activity against larvae of green rice leafhopper. To be noted: 168 h, 400 ppm, second-instar larvae, 25° C., seven days after treatment, read-out: Mortality. As for the experimental part: Activity against larvae of green rice leafhopper (Nephotettix cincticeps Uhler).
Testing method: Five rice seedlings of the 1.5 leaf age were dipped in a test composition of 400 ppm concentration for 30 seconds. After air-drying, the seedlings were placed in a glass tube containing 1 ml of water and infested with five second-instar larvae of green rice leafhopper. The glass tube was left standing in a constant temperature cabinet at 25° C. Seven days after the treatment, dead-and-survivalwas inspected to calculate the mortality (3-replication test).

Experiment [6] relates to larvae of white-backed planthopper (Sogatella furcifera Horvath). In words: Test Example 2: insecticidal activity against larvae of white-backed planthopper. Conditions: 168 h, 400 ppm, first-instar larvae, 25° C., seven days after treatment, read-out: Mortality. As for the experimental part:
Insecticidal activity against larvae of white-backed planthopper (Sogatella furcifera Horvath).
Testing method: Five rice seedlings of the 1.5 leaf age were dipped in a test composition of 400 ppm concentration for 30 seconds. After air-drying, the seedlings were placed in a glass tube containing 1 ml of water and infested with five first-instar larvae of white-backed planthopper. The glass tube was left standing in a constant temperature cabinet at 25° C. and seven days after the treatment, dead-and-survival was observed. Mortality was calculated from the results of 3-replication test.

Setting [7] is: 100 ppm, second-instar larvae, 25° C., five days, read-out: Mortality.

The structures appear in SMILES notation. Read-outs that look alike come from different tables or passages of the source.

For the compound `CCCCN=C1SCN(c2ccccc2)C(=O)N1CCCC` [Compound 146], the mortality at 10 ppm in experiment [1] was 100%. This compound also returned a mortality at 100 ppm in experiment [2] of 100%.
`CCCCN1C(=O)N(c2ccccc2)CSC1=NC(C)C` [Compound 147] yielded a mortality at 400 ppm in experiment [3] of 100%. Moreover, the mortality at 10 ppm in experiment [1] was determined as 100%. The same compound gave a mortality at 100 ppm in experiment [2] of 100%.
For `CCC(C)N=C1SCN(c2ccccc2)C(=O)N1c1ccccc1` (centres unmarked) [Compound 163, 2-s-Butylimino-3,5-diphenyl-tetrahydro-1,3,5-thiadiazin-4-one], the mortality at 100 ppm in experiment [2] (setting [7]) came out at 60%.
Take `CC(C)N=C1SCN(c2ccc(Cl)cc2)C(=O)N1C(C)C` [Compound 194]: the mortality at 400 ppm in experiment [3] and in experiment [5] was 100% throughout. The mortality at 1000 ppm in experiment [4] was 100%. This compound also showed a mortality at 10 ppm in experiment [1] of 80%.
Regarding `CC(C)N1C(=O)N(c2ccc(Cl)cc2)CSC1=NC(C)(C)C` [Compound 196, 2-t-Butylimino-3-isopropyl-5-(p-chlorophenyl)-tetrahydro-1,3,5-thiadiazin-4-one], the mortality at 400 ppm was 100% in experiment [3] and 90% in experiment [6]. The same compound returned a mortality at 1000 ppm in experiment [4] of 100%.
With `CCC(C)N=C1SCN(c2ccc(Cl)cc2)C(=O)N1C(C)CC` (centres unmarked) [Compound 197], the figures for the mortality at 400 ppm in experiment [3] and in experiment [6] were 100% and 90%, respectively. Further, in experiment [4], the mortality at 1000 ppm was 80%. For the same compound, in experiment [1], the mortality at 10 ppm was found to be 100%.
As for `CCC(C)N1C(=O)N(c2ccc(Cl)cc2)CSC1=NC(C)(C)C` (centres unmarked) [Compound 198], the mortality at 400 ppm in experiment [3], in experiment [6] and in experiment [5] was 100% each time. In experiment [4], the mortality at 1000 ppm was 100%. In experiment [1], this compound gave a mortality at 10 ppm of 100%. Besides, the mortality at 100 ppm in experiment [2] is 100%.
Turning to `CC(C)N=C1SCN(c2cccc(Cl)c2)C(=O)N1C(C)C` [Compound 220], the mortality at 400 ppm in experiment [3], in experiment [6] and in experiment [5] was 100% each time. In experiment [1], this compound yielded a mortality at 10 ppm of 80%. For the same compound, the mortality at 100 ppm in experiment [2] came out at 100%.
For `CC(C)N1C(=O)N(c2cccc(Cl)c2)CSC1=NC(C)(C)C` [Compound 221, 2-t-Butylimino-3-isopropyl-5-(m-chlorophenyl)-tetrahydro-1,3,5-thiadiazin-4-one], the mortality at 400 ppm in experiment [3], in experiment [6] and in experiment [5] was 100% each time. This compound had a mortality at 1000 ppm in experiment [4] of 100%. In addition, in experiment [1], the mortality at 10 ppm is 100%. The compound also came in with a mortality at 100 ppm in experiment [2] of 90%.
Consider `CCC(C)N1C(=O)N(c2cccc(Cl)c2)CSC1=NC(C)(C)C` (centres unmarked) [Compound 225, 2-t-Butylimino-3-s-butyl-5-(m-chlorophenyl)-tetrahydro-1,3,5-thiadiazin-4-one], for which the mortality at 400 ppm in experiment [3] turned out to be 100%; in experiment [6] it was 100%; in experiment [5], 90%. For the same compound, the mortality at 1000 ppm in experiment [4] came out at 100%. In experiment [1], this compound showed a mortality at 10 ppm of 100%.
With `CC(C)N=C1SCN(c2ccccc2Cl)C(=O)N1C(C)C` [Compound 244, 2-Isopropylimino-3-isopropyl-5-(o-chlorophenyl)-tetrahydro-1,3,5-thiadiazin-4-one], the mortality at 400 ppm in experiment [3], in experiment [6] and in experiment [5] was 100% each time. The compound further returned a mortality at 1000 ppm in experiment [4] of 70%. The mortality at 10 ppm in experiment [1] was found to be 100%.
As for `CCC(C)N=C1SCN(c2ccccc2Cl)C(=O)N1C(C)CC` (centres unmarked) [Compound 248], the mortality at 400 ppm in experiment [3] and in experiment [5] was 100% each time. Further, in experiment [4], the mortality at 1000 ppm worked out at 100%. The compound also returned a mortality at 10 ppm in experiment [1] of 90%.
In the case of `CC(C)N1C(=O)N(c2ccc(F)cc2)CSC1=NC(C)(C)C` [Compound 282, 2-t-butylimino-3-isopropyl 5-(p-fluorophenyl)-tetrahydro-1,3,5-thiadiazin-4-one], the mortality at 400 ppm in experiment [3], in experiment [6] and in experiment [5] was 100% in each case. The mortality at 1000 ppm in experiment [4] was found to be 80%. For the same compound, in experiment [1], the mortality at 10 ppm was determined as 90%.
In the case of `CCC(C)N1C(=O)N(c2ccccc2C)CSC1=NC(C)(C)C` (centres unmarked) [Compound 303], the mortality at 400 ppm in experiment [3], in experiment [6] and in experiment [5] was 100% in each case. The same compound came in with a mortality at 1000 ppm in experiment [4] of 80%. The compound further had a mortality at 100 ppm in experiment [2] of 100%.
The compound `CCCN1C(=O)N(c2ccc(C)cc2)CSC1=NC(C)C` [Compound 314] displayed a mortality at 400 ppm in experiment [3] of 100%. Also, the mortality at 1000 ppm in experiment [4] was found to be 100%. The same compound returned a mortality at 10 ppm in experiment [1] of 100%. In addition, the mortality at 100 ppm in experiment [2] came to 100%.
Turning to `Cc1cccc(N2CSC(=NC(C)C)N(C(C)C)C2=O)c1` [Compound 325], the mortality at 400 ppm in experiment [3], in experiment [6] and in experiment [5] was 100% in each case. The compound also displayed a mortality at 10 ppm in experiment [1] of 100%. This compound also yielded a mortality at 100 ppm in experiment [2] of 100%.
As for `COc1ccc(N2CSC(=NC(C)C)N(C(C)C)C2=O)cc1` [Compound 352], the mortality at 400 ppm in experiment [3], in experiment [6] and in experiment [5] was 100% in each case. The mortality at 10 ppm in experiment [1] stood at 100%. In experiment [2], the mortality at 100 ppm was 100%.
Consider `CC(C)N1C(=O)N(c2ccc([N+](=O)[O-])cc2)CSC1=NC(C)(C)C` [Compound 364], for which the mortality at 400 ppm in experiment [3] worked out at 100%. In experiment [4], this compound came in with a mortality at 1000 ppm of 60%. Further, the mortality at 100 ppm in experiment [2] is 80%.
Regarding `CCc1cccc(CC)c1N1CSC(=NC(C)C)N(C(C)C)C1=O` [Compound 395, 2-Isopropylimino-3-isopropyl-5-(2,6-diethylphenyl)-tetrahydro-1,3,5-thiadiazin-4-one], the mortality at 400 ppm in experiment [3] came to 100%; in experiment [6], 90%; in experiment [5] it was 100%. Moreover, the mortality at 1000 ppm in experiment [4] was 80%. Further, the mortality at 10 ppm in experiment [1] was found to be 100%.
In the case of `CC(C)N=C1SCN(c2ccc(Cl)cc2Cl)C(=O)N1C(C)C` [Compound 398], in experiment [3], the mortality at 400 ppm came out at 100%. Also, the mortality at 1000 ppm in experiment [4] was 80%. In experiment [2], this compound displayed a mortality at 100 ppm of 80%.
On to `CC(C)N1C(=O)N(c2ccc(Cl)cc2Cl)CSC1=NC(C)(C)C` [Compound 399], for which the mortality at 400 ppm in experiment [3] came to 100%. The mortality at 1000 ppm in experiment [4] worked out at 80%. In addition, the mortality at 100 ppm in experiment [2] was 100%.
`CCN=C1SCN(c2cc(Cl)cc(Cl)c2)C(=O)N1CC` [Compound 404] gave a mortality at 1000 ppm in experiment [4] of 100%. For the same compound, the mortality at 100 ppm in experiment [2] is 90%.
Take `CCCN1C(=O)N(c2cc(Cl)cc(Cl)c2)CSC1=NC(C)C` [Compound 405]: the mortality at 100 ppm in experiment [2] came out at 90%.
`CCC(C)N=C1SCN(c2cc(Cl)cc(Cl)c2)C(=O)N1C(C)CC` (centres unmarked) [Compound 411] came in with a mortality at 400 ppm in experiment [3] of 60%. Moreover, the mortality at 1000 ppm in experiment [4] is 100%. Also, in experiment [2], the mortality at 100 ppm stood at 100%.
In experiment [3], `C=CCN1C(=O)N(c2cc(Cl)cc(Cl)c2)CSC1=NC(C)C` [Compound 412, 2-Isopropylimino-3-allyl-5-(3,5-dichlorophenyl)-tetrahydro-1,3,5-thiadiazin-4-one] gave a mortality at 400 ppm of 100%. In experiment [4], this compound registered a mortality at 1000 ppm of 100%. Moreover, in experiment [2], the mortality at 100 ppm amounted to 100%.
As to `CCN1C(=O)N(c2ccc(Cl)c(Cl)c2)CSC1=NC(C)(C)C` [Compound 418], the mortality at 400 ppm in experiment [3] was 60%. The same compound gave a mortality at 1000 ppm in experiment [4] of 70%. For the same compound, the mortality at 100 ppm in experiment [2] (setting [7]) came to 70%.
In turn, `CC(C)N=C1SCN(c2ccc(Cl)c(Cl)c2)C(=O)N1Cc1ccccc1` [Compound 422] yielded a mortality at 400 ppm in experiment [3] of 60%. For the same compound, the mortality at 1000 ppm in experiment [4] worked out at 100%. For the same compound, the mortality at 100 ppm in experiment [2] worked out at 90%.

Usually mortality stands for the share of the test organisms that died.
